Measured values: patent US20230027066A1 (Urovant Sciences GmbH, priority 2019, published 2023)
Read-outs that look alike come from different tables or passages of the source.

Legend:
[1] = Description: A placebo group was included in the main study, and a group that received tolterodine monotherapy was included in the main study and in the extension.
[2] = Phase 2b study, vital sign (HR, SBP, DBP) changes and orthostatic AEs; assay type: in vivo, human
Description: None led to discontinuation. The overall incidence of orthostatic symptoms was low.
Small differences in the percent of subjects exceeding categorical heart rate and blood pressure thresholds for vibegron were similar to those in the tolterodine arm.

[3] = Phase 3 study (75 mg), adverse events; assay type: in vivo, human
Experimental: Study assessments of safety included adverse events, physical examinations, vital signs (and weight), and clinical laboratory tests
An adverse event is any untoward medical occurrence in a patient or clinical investigation patient, temporally associated with the use of a medicinal product, whether or not considered related to the medicinal product.
Adverse Events of Clinical Interest for this study included:
Safety analyses were conducted using the SAF and summarized by treatment group as treated. The treatment-emergent period is defined as the period of time from the first dose date of the double blinded Study Treatment through 28 days after the last dose of Study Treatment, or the date of initiation of another investigational agent or surgical intervention or rollover to the extension study, whichever occurs first. Safety was assessed through summaries of adverse events, the frequency of treatment discontinuations due to adverse events, and clinical laboratory evaluations.

[4] = system: men and women with overactive bladder; test: 40-week extension study (52 weeks), efficacy; assay type: in vivo, human; settings: for UUI Episodes 75% Responders at Week 52 / UUI Episodes 100% Responders at Week 52 / Urgency Episodes 50% Responders at Week 52: multiple imputation
Description: All CFB calculations used the parent study Baseline value.

[5] = system: men and women with overactive bladder; test: extension study, OAB-q LF coping subscore at Week 52; assay type: in vivo, human; settings: for OAB-q LF Coping Subscore, Week 52 Mean: Full Analysis Set Extension; for OAB-q LF Coping Subscore, Change from Baseline Mean at Week 52: baseline from parent study
[6] = 40-Week treatment group, Full Analysis Set Extension
[7] = 52-Week treatment group, Full Analysis Set Extension

## O=C(Nc1ccc(C[C@@H]2CC[C@H]([C@H](O)c3ccccc3)N2)cc1)[C@@H]1CCc2nccc(=O)n21 [Vibegron, (6S)-N-[4-[[(2S,5R)−5-[(R)-hydroxy(phenyl)methyl]pyrrolidin−2-yl]methyl]phenyl]−4-oxo−7,8-dihydro−6H-pyrrolo[1,2-a]pyrimidine−6-carboxamide]
[1]; human, in vivo
  frequency of injuries: 0.9%
[1]; vibegron 3 mg
  Accidental overdose: 3 (2.1) n (%)
[1]; vibegron 15 mg
  Accidental overdose: 6 (4.5) n (%)
[1]; vibegron 50 mg
  Accidental overdose: 4 (2.7) n (%)
[1]; vibegron 100 mg
  Accidental overdose: 11 (4.2) n (%)
[2]; vibegron 3 mg
  DBP change from baseline, mean (95% CI) maximum, week 1 to 8: 5.03 (3.92, 6.15) mm Hg
  DBP change from baseline, mean (95% CI), week 1: −0.37 (−1.69, 0.95) mm Hg
  HR change from baseline, mean (95% CI) maximum, week 1 to 8: 5.57 (4.25, 6.90) bpm
  HR change from baseline, mean (95% CI), week 1: 0.36 (−0.90, 1.62) bpm
  SBP change from baseline, mean (95% CI) maximum, week 1 to 8: 7.14 (5.18, 9.10) mm Hg
  SBP change from baseline, mean (95% CI), week 1: −0.35 (−2.34, 1.65) mm Hg
[2]; vibegron 15 mg
  DBP change from baseline, mean (95% CI) maximum, week 1 to 8: 6.37 (5.20, 7.53) mm Hg
  DBP change from baseline, mean (95% CI), week 1: 0.03 (−1.52, 1.59) mm Hg
  HR change from baseline, mean (95% CI) maximum, week 1 to 8: 6.56 (5.20, 7.92) bpm
  HR change from baseline, mean (95% CI), week 1: 0.35 (−1.15, 1.85) bpm
  SBP change from baseline, mean (95% CI) maximum, week 1 to 8: 8.93 (7.18, 10.67) mm Hg
  SBP change from baseline, mean (95% CI), week 1: −0.34 (−2.46, 1.78) mm Hg
  subjects with orthostatic related AEs: 0.3%
[2]; vibegron 50 mg
  DBP change from baseline, mean (95% CI) maximum, week 1 to 8: 4.19 (3.10, 5.29) mm Hg
  DBP change from baseline, mean (95% CI), week 1: −0.70 (−2.07, 0.67) mm Hg
  HR change from baseline, mean (95% CI) maximum, week 1 to 8: 5.49 (4.28, 6.69) bpm
  HR change from baseline, mean (95% CI), week 1: 0.29 (−0.88, 1.46) bpm
  SBP change from baseline, mean (95% CI) maximum, week 1 to 8: 7.01 (5.31, 8.70) mm Hg
  SBP change from baseline, mean (95% CI), week 1: −0.79 (−2.65, 1.08) mm Hg
[2]; vibegron 50 mg and 100 mg
  SBP and DBP, difference between placebo and vibegron in mean changes at Week 1 and mean maximum changes over 8 weeks: < 1 mm Hg
[2]; vibegron 100 mg
  DBP change from baseline, mean (95% CI) maximum, week 1 to 8: 4.80 (3.88, 5.72) mm Hg
  DBP change from baseline, mean (95% CI), week 1: −0.69 (−1.72, 0.34) mm Hg
  HR change from baseline, mean (95% CI) maximum, week 1 to 8: 6.12 (5.10, 7.15) bpm
  HR change from baseline, mean (95% CI), week 1: 0.35 (−0.69, 1.38) bpm
  SBP change from baseline, mean (95% CI) maximum, week 1 to 8: 6.51 (5.09, 7.93) mm Hg
  SBP change from baseline, mean (95% CI), week 1: −0.77 (−2.22, 0.68) mm Hg
  percent of subjects with a change from baseline in DBP >15 mmHg: 1.3%
  subjects with orthostatic related AEs: 1.1%
[2]; vibegron, all doses
  HR, mean maximum changes over 8 weeks, difference to placebo: < 2 bpm
[3]; 12-week study
  AE: ALT increase: 1 (0.2) n (%)
  AE: AST increase: 1 (0.2) n (%)
  AE: Atrial fibrillation: 1 (0.2) n (%)
  AE: Bilirubin increased: 0 n (%)
  AE: Blood creatinine increased: 1 (0.2) n (%)
  AE: Blood pressure diastolic increased: 0 n (%)
  AE: Blood pressure increased: 4 (0.7) n (%)
  AE: Cardiac failure congestive: 1 (0.2%) n (%)
  AE: Cerebrovascular accident: 1 (0.2) n (%)
  AE: Chest discomfort: 4 (0.7) n (%)
  AE: Chest pain: 0 n (%)
  AE: Chronic kidney disease: 1 (0.2) n (%)
  AE: Constipation: 9 (1.7) n (%)
  AE: Cystitis: 1 (0.2) n (%)
  AE: Diarrhea: 12 (2.2) n (%)
  AE: Dizziness: 5 (0.9) n (%)
  AE: Drug hypersensitivity: 2 (0.4) n (%)
  AE: Dry mouth: 9 (1.7) n (%)
  AE: Dysuria: 0 n (%)
  AE: Escherichia urinary-tract infection: 0 n (%)
  AE: Fatigue: 2 (0.4) n (%)
  AE: Glomerular filtration rate decreased: 1 (0.2) n (%)
  AE: Headache: 22 (4.0) n (%)
  AE: Hepatic enzyme increased: 0 n (%)
  AE: Hot flush: 4 (0.7) n (%)
  AE: Hyperglycemia: 3 (0.6) n (%)
  AE: Hypertension: 9 (1.7) n (%)
  AE: Hypotension: 1 (0.2) n (%)
  AE: Nasopharyngitis: 15 (2.8) n (%)
  AE: Nausea: 12 (2.2) n (%)
  AE: Pollakiuria: 0 n (%)
  AE: Positional vertigo: 0 n (%)
  AE: Residual urine volume increased: 4 (0.7) n (%)
  AE: Somnolence: 2 (0.4) n (%)
  AE: Syncope: 0 n (%)
  AE: Tachycardia: 0 n (%)
  AE: Transaminases increased: 1 (0.2) n (%)
  AE: Type 2 diabetes mellitus: 2 (0.4) n (%)
  AE: Urinary retention: 3 (0.6) n (%)
  AE: Urinary tract infection: 27 (5.0) n (%)
  AE: Vertigo: 1 (0.2) n (%)
[3]; patients ≥75 years
  AE: Back pain: 2.7%
  AE: Diarrhea: 4.0%
  AE: Dyspnea: 4.0%
  AE: Nausea: 2.7%
  AE: Rash: 2.7%
  AE: Somnolence: 2.7%
  AE: Upper respiratory tract infection: 4.0%
  AE: Urinary retention: 2.7%
  AE: Urinary tract infection: 8.0%
  Overall AE rate: 49.3%
[3]; safety population
  Any AE of clinical interest, %: (6.6%)
  Patients with at least one treatment emergent serious AEs, %: (1.5) %
  SAEs considered treatment-related by the investigator, %: (0.4) %
  SAEs: Hospitalization, %: (1.3) %
  SAEs: other serious criteria, %: (0.4) %
[3]; safety population, 12-week study
  Patients with at least one treatment emergent adverse events, %: (38.7) %
[3]; vibegron 75 mg or tolterodine ER 4 mg once daily, 12 weeks
  Patients with at least one Serious AE: 1.5%
[4]; 40-Week arm
  Micturitions, Change from Baseline at Week 52, Mean: −3.1
  UUI Episodes, Change from Baseline at Week 52, Mean: −2.3
  UUI Episodes, Week 52 Mean: 1.2
  Urgency Episodes, Change from Baseline at Week 52, Mean: −4.0
  Urgency Episodes, Week 52 Mean: 4.7
[4]; 40-Week arm, Full Analysis Set Extension
  Micturitions, Week 52 Mean: 9.3
[4]; [6]
  Total urinary incontinence episodes, Change from Baseline Mean at Week 52: −2.5
  Total urinary incontinence episodes, Week 52 Mean: 1.8
[4]; 40-Week treatment group
  UUI Episodes 75% Responders at Week 52: 58.7%
  UUI Episodes 100% Responders at Week 52: 42.1%
  Urgency Episodes 50% Responders at Week 52: 51.4%
[4]; 52-Week arm
  Micturitions, Change from Baseline at Week 52, Mean: −2.5
  UUI Episodes, Change from Baseline at Week 52, Mean: −2.2
  UUI Episodes, Week 52 Mean: 1.0
  Urgency Episodes, Change from Baseline at Week 52, Mean: −3.4
  Urgency Episodes, Week 52 Mean: 4.5
[4]; 52-Week arm, Full Analysis Set Extension
  Micturitions, Week 52 Mean: 8.7
[4]; [7]
  Total urinary incontinence episodes, Change from Baseline Mean at Week 52: −2.5
  Total urinary incontinence episodes, Week 52 Mean: 1.2
[4]; 52-Week treatment group
  UUI Episodes 75% Responders at Week 52: 61.0%
  UUI Episodes 100% Responders at Week 52: 40.8%
  Urgency Episodes 50% Responders at Week 52: 49.4%
[4]; 52-Weeks arm, Full Analysis Set Extension for Incontinence
  UUI Episodes, Change from Baseline LS Mean (SE) at Week 52: −2.2 (0.15)
[4]; 52-Weeks arm, mixed model for repeated measures
  Micturitions, Change from Baseline LS Mean (SE) at Week 52: −2.4 (0.24)
[4]; 52-Weeks treatment, Full Analysis Set Extension
  Urgency episodes, Change from Baseline LS Mean (SE) at Week 52: −3.4 (0.34)
[4]; 52-Weeks treatment, Full Analysis Set Extension for Incontinence
  Total urinary incontinence episodes, Change from Baseline LS Mean (SE) at Week 52: −2.5 (0.17)
[4]; 52-week treatment, Table 97
  % Responders, 50% Reduction in Total Inc at Week 52: 71%
  % Responders, 50% Reduction in UE at Week 52: 49%
  % Responders, 75% Reduction in UUI at Week 52: 61%
  % Responders, 100% Reduction in UUI at Week 52: 41%
  Micturitions, Least Squares Means CFB at Week 52: −2.4
  Total Incontinence Episodes, Least Squares Means CFB at Week 52: −2.5
  UUI Episodes, Least Squares Means CFB at Week 52: −2.2
  Urgency Episodes (UE), Least Squares Means CFB at Week 52: −3.4
  Volume Voided, mean change from baseline at Week 52: 26 mL
[5]; 40-Week treatment group
  OAB-q LF Coping Subscore, Week 52 Mean: 86.3
  OAB-q LF Coping Subscore, Change from Baseline Mean at Week 52: 28.3
[5]; 52-Week treatment group
  OAB-q LF Coping Subscore, Week 52 Mean: 83.6
  OAB-q LF Coping Subscore, Change from Baseline Mean at Week 52: 27.1
